{
  "source": "patent US20030125252A1",
  "about": "“Compositions and methods for affecting osteogenesis” (priority 2002, published 2003)",
  "key": {"MC3T3-E1 cells [1]": {"system": "MC3T3-E1 cells", "test": "Cell death, propidium iodide (PI) staining", "type": "cell-based, mouse", "details": "for number of PI-stained cells (cell death): MC3T3-E1, single ligand", "method": "Cultures of MC3T3-E1 were initiated at sub-confluence (1-2×10^4 cells/well) in 24-well plates and allowed to reach confluence prior to the addition of ligands, β-GP and ascorbate. […] Cells were incubated in the presence of the dye for 5 minutes, and images were acquired using epifluorescence with a XF35 filter set (Omega Optical) at low magnification (50×). The number of fluorescent-positive cells per microscopic field (3 mm^2) was counted using Northern Eclipse imaging software."}, "MC3T3-E1 cells [2]": {"system": "MC3T3-E1 cells", "test": "Histological analysis of mineralization (Alizarin Red S) in MC3T3-E1 cultures", "type": "cell-based, mouse", "details": "for mineralization (Alizarin Red S staining), concentration dependence: MC3T3-E1 mineralizing cultures", "method": "MC3T3-E1 cells were maintained in Minimum Essential Medium Eagle-modification supplemented with 10% fetal bovine serum (Gibco-BRL) and subcultured as previously described (20). For mineralization, cultures of MC3T3-E1 cells were supplemented with ascorbate (50 μg/ml) and β-glycerolphosphate (β-GP, 10 mM), and the medium was changed every 3 days. These compounds, in addition to ligands, were added to the media once the cultures had reached confluence. MC3T3-637OC stable transfectants were cultured in the same manner and supplemented with active G418 (700 μg/ml). COSP7 cells were cultured in Dulbecco's Modified Eagle's Medium containing 10% FBS and antibiotics. All-trans RA was obtained from Sigma. 4-[E-2-(5,6,7,8-Tetrahydro-5,5,8,8-tetramethyl-2-naphthalenyl)-1-propenyl] benzoic acid (TTNPB), 1,25 VD3 and 9-cis RA were purchased from BioMol.\nMC3T3-E1 cells were seeded at 2×10^4 cells/well into 12-well plates, and medium was changed at three-day intervals for a period of 4 weeks. Matrix calcification within the cultures was measured by histological staining with Alizarin Red S (Sigma). Cells were fixed for 10 min in equal parts of 40% formaldehyde and methanol, rinsed briefly in 50% ethanol followed by a rinse in water. Samples were then stained with Alizarin Red S (2% w/v, pH 4.2) for 2 min, followed by a 30-second wash in acetone and allowed to air dry. A Zeiss SV11 dissection microscope connected to a Sony DXC-950 video camera was used to capture digital images. The extent of mineralization for each culture was determined by calculating the percentage of surface area occupied by Alizarin Red S-stained material using Northern Eclipse image analysis software (Empix Imaging Inc.). All images were captured from the center of the well at low magnification, a field which represents ˜65% of the total surface area of the well."}, "MC3T3-E1 cells [3]": {"system": "MC3T3-E1 cells", "test": "Cell viability, MTT assay", "type": "cell-based, mouse", "details": "for cell viability: MC3T3-E1 early stage cultures, data not shown", "method": "Cell viability was measured in MC3T3-E1 cells using the 3-[4,5-dimethylthiazol-2-yl]-2,5-diphenyltetrazolium bromide (MTT) assay in 96-well plates as described in the Roche Molecular Biochemicals product information. Briefly, cells were cultured to confluence, at which time various concentrations and combinations of ligands were added to the cultures followed by incubation for 24 to 60 hr. MTT substrate to a final concentration of 0.5 mg/ml was added to each well and the incubation was extended for a further 4 hr. At this time, cells were solubilized overnight in 10% sodium dodecyl sulfate (SDS) in 0.01 M HCl and absorbance was measured at 595 nm using a 650 nm reference wavelength."}, "normal human osteoblasts [4]": {"system": "normal human osteoblasts", "test": "Normal human osteoblast cultures, mineralization (alizarin red S, Von Kossa)", "type": "cell-based", "details": "1000 nM, versus control cultures"}, "RARα": {"target": "T1, RARα (Homo sapiens, UniProt P10276)", "T1 sequence (P10276 1-462)": "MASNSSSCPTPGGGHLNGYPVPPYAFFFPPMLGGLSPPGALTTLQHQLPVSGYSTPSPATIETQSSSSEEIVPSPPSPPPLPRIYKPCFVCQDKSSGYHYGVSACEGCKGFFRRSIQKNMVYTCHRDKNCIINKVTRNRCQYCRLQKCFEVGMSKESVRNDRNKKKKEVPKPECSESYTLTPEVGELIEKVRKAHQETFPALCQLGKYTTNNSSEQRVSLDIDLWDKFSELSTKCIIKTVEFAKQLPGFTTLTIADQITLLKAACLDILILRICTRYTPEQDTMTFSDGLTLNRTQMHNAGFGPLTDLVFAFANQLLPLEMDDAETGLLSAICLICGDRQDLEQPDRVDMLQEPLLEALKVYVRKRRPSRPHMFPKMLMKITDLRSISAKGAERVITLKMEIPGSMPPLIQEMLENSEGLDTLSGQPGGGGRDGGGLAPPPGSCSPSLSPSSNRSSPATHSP", "details": "cited from earlier work"}, "[5]": {"system": "OC mRNA in MC3T3-E1 cultures", "test": "Northern blotting of osteocalcin (OC) mRNA", "type": "cell-based, mouse", "details": "MC3T3-E1, 1000 nM", "method": "Total RNA was isolated with TriPure Isolation Reagent (Roche Molecular Biochemicals) from MC3T3-E1 cultures under mineralizing conditions at various times after culture initiation. RNA samples were separated by electrophoresis of 15 μg aliquots on a 1% agarose-formaldehyde gel. RNA was then transferred to a Hybond-N nylon membrane (Amersham-Pharmacia Biotech) and cross-linked by UV irradiation. Blots were pre-hybridized in Ultrahyb (Ambion) at 45° C. for at least 1 hr. A radiolabeled rat cDNA probe to OC (provided by J. E. Aubin, University of Toronto) was synthesized by random priming. Hybridizations were carried out overnight in Ultrahyb at 42° C. Following hybridization, blots were washed twice with 2×SSC, 0.1% SDS containing buffer for 5 min each at 42° C., followed by two washes in 0.1×SSC, 0.1% SDS for 15 min each at 42° C. and exposed to BioMax X-ray film at −80° C. for 24 hr."}, "RARβ": {"target": "T2, RARβ (Homo sapiens, UniProt P10826)", "T2 sequence (P10826 1-455)": "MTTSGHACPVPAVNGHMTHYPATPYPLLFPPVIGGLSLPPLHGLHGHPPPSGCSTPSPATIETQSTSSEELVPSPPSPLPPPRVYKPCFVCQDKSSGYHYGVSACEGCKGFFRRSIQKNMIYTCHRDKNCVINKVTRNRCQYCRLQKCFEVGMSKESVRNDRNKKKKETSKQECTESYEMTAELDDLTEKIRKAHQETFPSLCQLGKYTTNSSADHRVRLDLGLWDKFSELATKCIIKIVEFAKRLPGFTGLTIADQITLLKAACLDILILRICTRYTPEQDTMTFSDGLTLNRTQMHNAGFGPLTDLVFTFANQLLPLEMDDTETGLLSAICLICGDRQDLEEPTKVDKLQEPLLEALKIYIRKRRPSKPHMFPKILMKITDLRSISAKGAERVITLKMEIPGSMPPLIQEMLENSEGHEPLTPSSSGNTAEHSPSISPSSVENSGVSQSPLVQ", "details": "compared with RARα; cited from earlier work"}, "RARγ": {"target": "T3, RARγ (Homo sapiens, UniProt P13631)", "T3 sequence (P13631 1-454)": "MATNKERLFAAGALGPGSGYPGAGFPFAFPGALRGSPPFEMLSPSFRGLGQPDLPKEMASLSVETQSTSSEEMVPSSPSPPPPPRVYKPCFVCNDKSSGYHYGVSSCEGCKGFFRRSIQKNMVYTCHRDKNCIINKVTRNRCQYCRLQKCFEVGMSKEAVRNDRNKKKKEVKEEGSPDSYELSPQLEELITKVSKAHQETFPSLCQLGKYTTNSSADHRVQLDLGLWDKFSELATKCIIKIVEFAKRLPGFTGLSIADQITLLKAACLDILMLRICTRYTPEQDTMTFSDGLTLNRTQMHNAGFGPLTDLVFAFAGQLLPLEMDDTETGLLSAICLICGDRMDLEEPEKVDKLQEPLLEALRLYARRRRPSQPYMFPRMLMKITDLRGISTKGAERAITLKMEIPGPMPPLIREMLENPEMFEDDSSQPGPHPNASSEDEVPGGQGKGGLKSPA", "details": "compared with RARα; cited from earlier work"}, "normal human osteoblasts [6]": {"system": "normal human osteoblasts", "test": "Normal human osteoblast cultures, cell death and cell number (PI, Hoechst 33342)", "type": "cell-based", "details": "1000 nM, 10 days, versus control cultures", "method": "Normal human osteoblast (NHO) were derived from the long bones of a human donor. The cells were purchased from Clonetics (BioWhittaker Company) and cultured according to their protocols with media and serum obtained from Clonetics. Ligands were added to the cell cultures once the cells had reached confluence. Cells were stained with Hoechst 33342, a DNA stain, to allow visualization of the cell nuclei and allow assessment of cell number (the cell nuclei appear white) (FIGS. 7A-C). FIGS. 7D-F the cells were stained with propidium iodide (a membrane impermeant nucleic acid stain) to allow visualization of dead or dying cells."}},
  "data": [
    {"smiles": "C=C1/C(=C\\C=C2/CCC[C@]3(C)[C@@H]([C@H](C)CCCC(C)(C)O)CC[C@@H]23)C[C@@H](O)C[C@@H]1O", "note": "[1,25 VD3, 1α,25-dihydroxy vitamin-D3]", "values": [
      {"measurement": "potency in raising PI-stained bodies, compared with the RAR-agonist", "setting": "MC3T3-E1 cells [1]; MC3T3-E1, over the concentration range examined", "value": "greater potency than the RAR-agonist"},
      {"measurement": "number of PI-stained cells (cell death)", "setting": "MC3T3-E1 cells [1]", "value": "greater number of PI-stained bodies"},
      {"measurement": "amount of Alizarin Red-staining", "setting": "MC3T3-E1 cells [2]; MC3T3-E1, 28 days, 0.1 nM", "value": "decrease in the amount of Alizarin Red-staining"},
      {"measurement": "mineralization (Alizarin Red S staining), concentration dependence", "setting": "MC3T3-E1 cells [2]", "value": "concentration-dependent decrease in mineralization"},
      {"measurement": "cell viability (MTT)", "setting": "MC3T3-E1 cells [3]; MC3T3-E1, 60 hr, individual ligand", "value": "decreased cell viability"}
    ]},
    {"smiles": "CC1=C(/C=C/C(C)=C\\C=C\\C(C)=C\\C(=O)O)C(C)(C)CCC1", "note": "[9-cis RA, 9-cis retinoic acid]", "values": [
      {"measurement": "number of PI-stained cells (cell death)", "setting": "MC3T3-E1 cells [1]", "value": "stimulate cell death"},
      {"measurement": "cell viability", "setting": "MC3T3-E1 cells [3]", "value": "concentration-dependent decrease in cell viability"}
    ]},
    {"smiles": "Cc1ccc(C2=CC(C)(C)Oc3c(Br)cc(C(=O)Nc4ccc(C(=O)O)c(F)c4)cc32)cc1", "note": "[AGN194301, 2-Fluoro-4-[(1-(8-bromo-2,2-dimethyl-4-(4-methylphenyl)-2-H-chromen-6-yl)-methanoyl)-amino]-benzoic acid]", "values": [
      {"measurement": "mineral deposition (Von Kossa, calcium phosphate)", "setting": "normal human osteoblasts [4]; 19 days of ligand treatment", "value": "stimulates mineral deposition"},
      {"measurement": "affinity for RARα", "setting": "RARα", "value": "high affinity"},
      {"measurement": "antagonism of RARα", "setting": "RARα", "value": "potent antagonist"},
      {"measurement": "OC expression", "setting": "[5]", "value": "stimulated OC expression"},
      {"measurement": "culture time after which strong OC mRNA expression became evident", "setting": "[5]; wild-type cultures 18 days", "value": 12, "unit": "days"},
      {"measurement": "affinity for RARβ", "setting": "RARβ", "value": "lower affinity"},
      {"measurement": "number of PI-positive cells relative to 1,25 VD3 treated culture", "setting": "MC3T3-E1 cells [1]; AGN194301 added to 1,25 VD3-treated cultures, 36 hr", "value": "less than 20%"},
      {"measurement": "appearance of PI-positive cells", "setting": "MC3T3-E1 cells [1]; MC3T3-E1, AGN194301 alone", "value": "no appreciable effect"},
      {"measurement": "bone formation relative to control cultures", "setting": "MC3T3-E1 cells [2]; 100 nM AGN194301 added to cultures treated with 10 nM 1,25 VD3", "value": "~70", "unit": "%"},
      {"measurement": "increase of Alizarin Red S staining over untreated controls", "setting": "MC3T3-E1 cells [2]; MC3T3-E1, 28 days, 10 nM", "value": "approximately 3 fold"},
      {"measurement": "culture surface area stained with Alizarin Red S", "setting": "MC3T3-E1 cells [2]; MC3T3-E1, 28 days, 1 μM, control cultures approximately 18%", "value": "approximately 95%"},
      {"measurement": "mineralization (Alizarin Red S staining), concentration dependence", "setting": "MC3T3-E1 cells [2]", "value": "concentration-dependent increase in Alizarin Red S staining"},
      {"measurement": "affinity for RARγ", "setting": "RARγ", "value": "lower affinity"}
    ]},
    {"smiles": "C/C(=C\\c1ccc(C(=O)O)cc1)c1ccc2c(c1)C(C)(C)CCC2(C)C", "note": "[TTNPB, 4-[E-2-(5,6,7,8-Tetrahydro-5,5,8,8-tetramethyl-2-naphthalenyl)-1-propenyl] benzoic acid]", "values": [
      {"measurement": "number of PI-stained cells (cell death)", "setting": "MC3T3-E1 cells [1]", "value": "stimulate cell death"},
      {"measurement": "cell viability", "setting": "MC3T3-E1 cells [3]", "value": "concentration-dependent decrease in cell viability"}
    ]},
    {"smiles": "CC1=C(/C=C/C(C)=C/C=C/C(C)=C/C(=O)O)C(C)(C)CCC1", "note": "[all-trans RA, all-trans retinoic acid]", "values": [
      {"measurement": "alizarin red staining", "setting": "normal human osteoblasts [4]; fifteen day old cultures", "value": "reduced alizarin red staining"},
      {"measurement": "cell death (PI staining)", "setting": "normal human osteoblasts [6]", "value": "increased cell death"},
      {"measurement": "cell number (Hoechst 33342)", "setting": "normal human osteoblasts [6]", "value": "decreased cell number"},
      {"measurement": "number of PI-stained cells (cell death)", "setting": "MC3T3-E1 cells [1]", "value": "stimulate cell death"},
      {"measurement": "cell viability", "setting": "MC3T3-E1 cells [3]", "value": "concentration-dependent decrease in cell viability"}
    ]}
  ]
}
